Experimental data from patent publication US20260158149A1, “GLYCOSYLATED PRODRUGS” (UNIVERSITEIT LEIDEN, priority 2021, published 2026).
“Also recorded” adds a separate entry of the source.

Columns and labels:
[1] = tested on: neutrophils migrated to the wounded area; test: Tail fin amputation assay: neutrophil migration to the wounded area; type: in vivo, Zebrafish (Danio rerio); details: for reduction in neutrophil migration in the presence of MZ31: GBA2 inhibitor MZ31; for inhibition of neutrophil migration in Gr deficient larvae: gr mutant line (gr-/-); for reduction in neutrophil migration in the presence of miglustat: non-specific GBA inhibitor miglustat; for neutrophil migration in Gba2-deficient larvae: gba2-/- mutant line
Method: Zebrafish (Danio rerio) were maintained and handled according to the guidelines from the Zebrafish Model Organism Database (https://zfin.org/) and in compliance with the directives of the local animal welfare committee of Leiden University. To maintain circadian rhythmicity, adult fish were exposed to a 14 h light and 10 h dark cycle. Fertilization was performed by natural spawning at the beginning of the light period. Fertilized eggs were collected and raised at 28° C. in egg water (60 μg/ml Instant Ocean sea salts and 0.0025% methylene blue). The following zebrafish lines were used in this study: AB/TL wild type, the transgenic lines Tg(mpx:GFP^i114/mpeg1:mCherry^umsF001) (Bernut et al., (2014). Mycobacterium abscessus cording prevents phagocytosis and promotes abscess formation. Proc Natl Acad Sci USA 111, E943-952; Renshaw et al., (2006). A transgenic zebrafish model of neutrophilic inflammation. Blood 108, 3976-3978), and Tg(9xGCRE-HSV.UI123:EGFP)^ia20 (Benato et al., (2014). A living biosensor model to dynamically trace glucocorticoid transcriptional activity during development and adult life in zebrafish. Mol Cell Endocrinol 392, 60-72), and the mutant lines gba2^−/− (Lelieveld et al., (2019). Role of beta-glucosidase 2 in aberrant glycosphingolipid metabolism: model of glucocerebrosidase deficiency in zebrafish. J Lipid Res 60, 1851-1867) and gr^s357 (Ziv et al., (2013). An affective disorder in zebrafish with mutation of the glucocorticoid receptor. Mol Psychiatry 18, 681-691).
(§1) For the tail fin amputation experiments, 3 days post fertilization (dpf) larvae from the Tg(mpx:GFP^i114/mpeg1:mCherry^umsF001) line were anesthetized in 0.02% buffered aminobenzoic acid ethyl ester (tricaine) in egg water and placed on a 2% agarose-coated petri dish. The tails were partially amputated with a 1 mm sapphire blade (World Precision Instruments) under a Leica M165C stereomicroscope (Leica Microsystems, Wetzlar, Germany). Chemical treatment (or 0.1% DMSO as vehicle treatment) was started at 2 h before the amputation (pretreatment) and was continued for 4 h after the tail fin amputation (20 larvae per group, unless indicated otherwise), at which time point the larvae were fixed in 4% paraformaldehyde (PFA) overnight at 4° C. and stored at 4° C. until further examination. In some experiments, a 24 h treatment with miglustat, ME656 or MZ31 was started at 2 dpf, and these treatments were continued during the pretreatment and treatment with the other chemicals. For imaging of larvae from the Tg(mpx:GFP^i114/mpeg1:mCherry^umsF001) line, a LeicaMZ16FA fluorescence stereomicroscope with LAS 3.7 software was used. Neutrophils were detected by GFP fluorescence and macrophages by mCherry fluorescence. The neutrophil numbers were determined by blinded manual counting in a pre-determined area. When larvae from gba2^−/− or gr^s357mutant lines were used, neutrophil labeling was performed with the TSA fluorescein detection kit (PerkinElmer) for specific staining of Myeloperoxidase (Mpx)-positive cells, following the manufacturer's instructions.

[2] = Whole-body cortisol measurement using ELISA; details: for whole body cortisol level: 5 dpf larvae treated from 2 hpf, non-wounded; for whole body cortisol level under wounding conditions / whole body cortisol level under wounding conditions with MZ31: 5 dpf larvae, wounded at 2 dpf; for whole body cortisol level under wounding conditions with MZ31: GBA2 inhibitor MZ31
Method: Zebrafish embryos at 2 hpf received a chemical treatment, as indicated, with daily refreshment of the solutions, until 96 hpf. Then, the treatments were stopped and embryos were incubated in egg water until 5 dpf to avoid cross-reactivity with the compounds of the cortisol antibody used in the ELISA. Then, the treatments were stopped and replaced with egg water. At 5 dpf, the larvae were collected in an Eppendorf tube and 100 μL of ice-cold phosphate-buffered saline (PBS) was added. The larvae were homogenized using a BulletBlender® for 3 min at 8,000 rpm. Ethyl acetate was added to the homogenate and the supernatant was gathered and vaporized. A volume of 150 μl of 0.2% Bovine serum albumin (Sigma Aldrich) dissolved in phosphate-buffered saline (PBS) was added to the samples and frozen. Whole-body cortisol of the zebrafish larvae was determined by ELISA (Demeditec Diagnostics GmbH, Kiel-Wellsee, Germany), following the manufacturer's instructions. In each experiment, three biological replicates were used for each treatment group, and the colorimetric assay was performed using technical duplicates.

[3] = tested on: il1b, il6, mmp9, mmp13, il8 mRNA; test: qPCR of pro-inflammatory genes after tail wounding; type: in vivo, Zebrafish (Danio rerio)
Excerpt: as §1
(§2) For experiments in zebrafish, gene expression was measured using 3 dpf embryos. Groups of 15 larvae were collected in TRIzol reagent (Invitrogen) and mRNA was isolated using the miRNeasy mini kit (Qiagen), according to the manufacturer's instructions. For experiments in HeLa cells, samples were collected from a single well from 6 well plates (80% confluent) in TRIzol reagent and mRNA was isolated using the RNeasy mini kit. Zebrafish and cells samples were treated with DNAse utilizing the DNA-Free™ kit (Ambion). The cDNA synthesis was performed using iScript cDNA synthesis kit (Bio-Rad) using 1 μg of RNA per sample. For qPCR, 10 μM of forward and 10 μM of reverse primer, 12.5 μL of iQ SYBR Green Supermix (Bio-Rad), and 2 μL of cDNA were added to the qPCR reaction mixture. […] The qPCR reactions were performed on a MyiQ-single-color real-time PCR detection system (Bio-Rad) with initial denaturation for 3 min at 95° C. and 40 cycles of 15 s at 95.5° C., 15 s at 60° C., and 30 s at 72° C. Cycle threshold values (Ct values, i.e. the cycle numbers at which a threshold value of the fluorescence intensity was reached) were determined for each sample. The gene expression level for each sample was normalized using the expression of ppial (peptidylprolyl isomerase Ab (cyclophilin A)) for zebrafish samples, and 18S rRNA for human cells. The fold change per sample (compared to the respective control group) was calculated using the ΔΔCt method.

Gr = test: Transactivation activity of Gr in Tg(9xGCRE-HSV.UI23:EGFP) reporter line; type: in vivo, Zebrafish (Danio rerio); details: 24 h treatment, 3 dpf larvae
Method: The Tg(9xGCRE-HSV.UI23:EGFP)^ia20 zebrafish reporter line expresses enhanced green fluorescent protein (EGFP) under the control of a promoter containing an array of nine GREs. To study the effect of chemical treatments on the transactivation activity of the Gr, 15 zebrafish embryos per group (2 dpf) were treated with the indicated compounds for 24 hours. The transactivation activity of Gr induced by the treatments was assessed using a LeicaMZ16FA fluorescence stereomicroscope supported by LAS 3.7 software. The integrated intensity of the EGFP signal in the larvae was determined using ImageJ software.

[4] = tested on: Gr target genes fkbp5, pck1 and nfkbiaa; test: qPCR of Gr target genes fkbp5, pck1, nfkbiaa; type: in vivo, Zebrafish (Danio rerio)
Method: as §2

regenerated tail fin = test: Regeneration of the tail fin after wounding; type: in vivo, Zebrafish (Danio rerio); details: 5 dpf larvae, wounded at 2 dpf; for tissue regeneration with MZ31: GBA2 inhibitor MZ31
Method: (§3) When the regeneration of the tail fins after wounding or the larval body length was used as a readout, chemical treatments of the embryos were started at 2 hours post fertilization (hpf) and continued until 5 dpf. During this period, solutions were refreshed daily. At 5 dpf, larvae were imaged using a LeicaMZ16FA fluorescence stereomicroscope supported by LAS 3.7 software, and the length of the larvae was measured using ImageJ software (15 larvae per treatment group). For the regeneration experiments, tail fins were amputated at 2 dpf and larvae were imaged at 5 dpf (15 larvae per treatment group). The newly grown tissue can be distinguished from the old tissue, enabling precise measurement of the size of the newly grown tissue using ImageJ software.

Larval body length = type: in vivo, Zebrafish (Danio rerio); details: 5 dpf, treatment from 2 hpf
Method: as §3

[5] = Whole-body glucose measurement in larvae; details: 5 dpf larvae treated from 2 hpf, non-wounded
Method: Zebrafish embryos at 2 hpf received a chemical treatment, as indicated, with daily refreshment of the solutions, until 5 dpf. At 5 dpf, the larvae were collected in an Eppendorf tube and 100 μL of ice-cold glucose buffer was added to each sample. The larvae were homogenized using a BulletBlender® for 3 min at 8,000 rpm. The homogenates were then centrifuged at 4° C. for 8 min at 11000 rpm and the supernatant was stored at −20° C. Whole-body glucose concentrations were determined using a Glucose Colorimetric Assay kit (Cayman Chemical, USA), according to the manufacturer's instructions. In each experiment, three biological replicates were used for each treatment group, and the colorimetric assay was performed using technical duplicates.

[6] = tested on: collagen antibody-induced arthritis (CAIA)
IL-6 = test: CAIA model: serum IL-6 by ELISA; type: in vivo, mouse
Method: All mice received 1.5 mg of a CAIA-cocktail (Chondrex) intravenously on day 1, followed by intraperitoneal (i.p.) injection of 50 μg LPS (Chondrex) on day 4. Mice were randomly divided into six groups. […] Scores were assigned blinded. […] The blood collection on day 14 was performed after 6 h fasting. On day 15, mice were sacrificed using carbon dioxide, and tissue samples were collected that were immediately frozen in liquid nitrogen. Applied humane endpoints were a total body weight loss of >20% in comparison to the day of LPS treatment or reaching an arthritis score of 45.
IL-6 concentrations were determined by ELISA in the serum collected at days 10 and 15, using the IL-6 mouse ELISA kit (Invitrogen), following the manufacturer's protocol. The insulin concentration was determined in serum collected at day 14, using the Ultra-sensitive mouse insulin ELISA kit (Crystal Chem), following the manufacturer's protocol. Corticosterone concentrations were determined in serum collected at day 15, using the Corticosterone HS (high sensitivity) enzyme immunoassay kit (Immunodiagnostic Systems), following the manufacturer's protocol. Expression levels of various GR target genes were determined by qPCR in the tissue samples (homogenized in TRIzol Reagent (ThermoFisher)) collected at day 15.

[7] = Pdn 12.5 or 25 mg/kg i.p. daily from day 7

SMILES | reduction in neutrophil migration in the presence of MZ31 [1] | inhibition of neutrophil migration in Gr deficient larvae [1] | reduction in neutrophil migration in the presence of miglustat [1] | whole body cortisol level [2] | wounding-induced increase in expression of il1b, il6 and mmp9 [3] | transactivation activity of Gr (GFP signal in GRE:GFP reporter fish line) (Gr) | tissue regeneration (length of regenerated tail fin) (regenerated tail fin) | larval length (Larval body length) | whole body glucose level [5] | neutrophil migration in Gba2-deficient larvae [1] | whole body cortisol level under wounding conditions [2] | whole body cortisol level under wounding conditions with MZ31 [2] | tissue regeneration with MZ31 (regenerated tail fin) | further results
CC(C)=CCCC(C)(O)[C@H]1CC[C@]2(C)[C@@H]1[C@H](O)C[C@@H]1[C@@]3(C)CC[C@H](O)C(C)(C)[C@@H]3CC[C@]12C (stereo in doubt) [PPD, Protopanaxadiol] | did not affect the action of PPD | the inhibition of neutrophil migration was abolished | did not affect the action of PPD | did decrease the cortisol concentration | strongly suppressed | did not cause an increase in the fluorescence intensity | did decrease | did decrease | did not affect the glucose level |  |  |  |  | expression of Gr target genes fkbp5, pck1 and nfkbiaa [4]: did not increase the expression
CC(C)=CCC[C@](C)(O[C@@H]1O[C@H](CO[C@@H]2O[C@H](CO)[C@@H](O)[C@H](O)[C@H]2O)[C@@H](O)[C@H](O)[C@H]1O)[C@H]1CC[C@]2(C)[C@@H]1[C@H](O)C[C@@H]1[C@@]3(C)CC[C@H](O[C@@H]4O[C@H](CO)[C@@H](O)[C@H](O)[C@H]4O[C@@H]4O[C@H](CO)[C@@H](O)[C@H](O)[C@H]4O)C(C)(C)[C@@H]3CC[C@]12C [Rb1] | abolished | the inhibition of neutrophil migration was abolished | abolished | neither did they affect the cortisol concentration | strongly suppressed | did not cause an increase in the fluorescence intensity | neither did they affect; also recorded: minor effect |  | did not show any effect on glucose | did not affect the neutrophil migration | minor effect | GBA2-dependent | GBA2-dependent | 
C[C@@H]1C[C@H]2[C@@H]3CCC4=CC(=O)C=C[C@]4(C)[C@@]3(F)[C@@H](O)C[C@]2(C)[C@@]1(O)C(=O)CO [Dex, dexamethasone] |  |  |  | decreased the cortisol level; also recorded: significantly larger decrease |  |  |  | decreased | increased the glucose concentration |  |  |  |  | 
C[C@]12C=CC(=O)C=C1CC[C@@H]1[C@@H]2[C@@H](O)C[C@@]2(C)[C@H]1CC[C@]2(O)C(=O)CO [Pdn, prednisolone] |  |  |  | significantly larger decrease |  |  |  |  |  |  |  |  |  | arthritis score at maximal reduction [6, 7]: approximately 0; day of maximal reduction of arthritis score [6, 7]: 11 days; arthritis scores after treatment initiation ([6]; all dose groups, daily i.p. from day 7): decreased rapidly after treatment initiation; migration of neutrophils towards the wounded area ([1]; wild type larvae, 4 h after tail wounding): inhibited the neutrophil migration; expression of the pro-inflammatory genes il1b, il6 and il8 [3]: these effects were similar to those observed upon Pdn and GPdn treatment; serum IL-6 level compared to the vehicle group (IL-6; day 10, all treatment groups): significant reduction of the IL-6 level; serum IL-6 level (IL-6; day 15, all groups except 12.5 mg/kg GbPdn): undetectable
CC(C)=CCC[C@](C)(O[C@@H]1O[C@H](CO)[C@@H](O)[C@H](O)[C@H]1O)[C@H]1CC[C@]2(C)[C@@H]1[C@H](O)C[C@@H]1[C@@]3(C)CC[C@H](O[C@@H]4O[C@H](CO)[C@@H](O)[C@H](O)[C@H]4O)C(C)(C)[C@@H]3CC[C@]12C [F2] | abolished | the inhibition of neutrophil migration was abolished | abolished | neither did they affect the cortisol concentration | strongly suppressed | did not cause an increase in the fluorescence intensity | neither did they affect; also recorded: minor effect |  | did not show any effect on glucose | did not affect the neutrophil migration | minor effect | GBA2-dependent | GBA2-dependent | 
